Assay results as given in paper PMC7140114 (Cancers, 2020).
Numbered stars: 1 amine (or outer) side, 2 acyl side, 3 side chain; on linkers, the order of the positions; unused ones are H or OH. Square brackets hold non-standard residues; d marks the D form. Peptide text beside a SMILES is read from it. * marks the point of attachment. Dolaproine = CO[C@@H]([C@@H]1CCCN1)[C@@H](C)C(=O)O; X1 = N[C@@H](CSC1CC(=O)N(CCCCCC(=O)*)C1=O)C(=O)O; Dil = CC[C@H](C)[C@H](NC)[C@@H](CC(=O)O)OC; PABC = O=C(OCc1ccc(N[*:1])cc1)[*:2]; X2 = C[C@@H](N*)[C@@H](O)c1ccccc1; NMeV = CN[C@H](C(=O)O)C(C)C

Tests used:
[1] = test system: HCC1954 cells; test: In vitro cytotoxicity (CellTiter-Glo, 7 days), HCC1954; format: cell-based, human; conditions: HCC1954, HER2+++; for IC50: Homo sapiens, 168 h
Protocol: (§1) Human HER2-positive cell lines (BT-474, HCC1954, and NCI-N87) and HER2-negative cell lines (MCF-7 and MDA-MB-468) were purchased from the ATCC. Tumor cells were cultured in Roswell Park Memorial Institute (RPMI)-1640 medium (Cellgro, Manassas, VA, USA) supplemented with 10% fetal bovine serum (Invitrogen, Carlsbad, CA, USA) and GlutaMAX (Invitrogen, Carlsbad, CA, USA). Cells (3.3 × 10^4 cells/well) were added to each well of 384-well plates and incubated at 37 °C overnight, after which 10 μL of compound aliquots were added to the assay plate. […] Then, the plates were removed from the incubator and equilibrated at room temperature for 10 min. The Cell Titer Glo® (CTG, Promega, Madison, WI, USA) reagents were incubated at 37 °C before the experiment. The buffer was equilibrated to room temperature and used to dissolve the substrate. Then, 40 μL of CTG reagent was added to each well for detection (at 1:1 ratio to the culture medium).

[2] = test system: BT-474 cells; test: In vitro cytotoxicity (CellTiter-Glo, 7 days), BT-474; format: cell-based, human; conditions: BT-474, HER2+++; for IC50: Homo sapiens, 168 h
Protocol: as §1

[3] = test system: MCF-7 cells; test: In vitro cytotoxicity (CellTiter-Glo, 7 days), MCF-7; format: cell-based, human; conditions: MCF-7, HER2−; for IC50: Homo sapiens, MCF7, 168 h
Protocol: as §1

[4] = test system: tubulin; test: Tubulin polymerization inhibition assay (fluorescence-based kit); format: biochemical; conditions: tested at 0.1-30 μM; mean of triplicate
Description: In this study, we used a molecular-level tubulin inhibition assay to rapidly assess the efficacy of ionized conjugates to circumvent the effects of the differences in membrane permeability. […] All of the tested Cys-linker-MMAE conjugates produced concentration-dependent inhibition of tubulin polymerization, providing a basis for developing ADCs with Cys-linker-MMAE as potent payloads.
We used the Tubulin Polymerization Assay Kit (Cat. # BK011P, Cytoskeleton, Inc., Denver, CO, USA) according to the manufacturer’s instructions for this fluorescence-based test. Before this test, the linker-MMAE conjugates were added to an L-cysteine solution (0.3 mmol/L in H2O, 900 μL), and the mixture was incubated for 10 min at room temperature for the conversion to Cys-linker-MMAE conjugates according to previously reported methods.

[5] = test system: NCI-N87 cells; test: In vitro cytotoxicity (CellTiter-Glo, 7 days), NCI-N87; format: cell-based, human; conditions: NCI-N87, HER2+++; for IC50: Homo sapiens, 168 h
Protocol: as §1

[6] = test system: HER2-positive cell lines (BT-474, HCC1954, and NCI-N87) and HER2-negative cell lines (MCF-7, and MDA-MB-468); test: In vitro cytotoxicity, summary over the cell line panel; format: cell-based, human; conditions: from Table 2 IC50 values
Protocol: as §1

[7] = test system: MDA-MB-468 cells; test: In vitro cytotoxicity (CellTiter-Glo, 7 days), MDA-MB-468; format: cell-based, human; conditions: MDA-MB-468, HER2−; for IC50: Homo sapiens, 168 h
Protocol: as §1

[8] = test system: cells (cellular level); conditions: cited from earlier work

Row | Structure (SMILES) | Max. Inhibition [1] | IC50 [1] | Max. Inhibition [2] | IC50 [2] | IC50 [3] | Max. Inhibition [3] | EC50 [4] | IC50 [5] | Max. Inhibition [5] | Decrease in activity compared to MMAE in each cell line [6] | IC50 [7] | Max. Inhibition [7] | IC50 [8]
1 | CC[C@H](C)[C@@H]([C@@H](CC(=O)N1CCC[C@H]1[C@H](OC)[C@@H](C)C(=O)N[C@H](C)[C@@H](O)c1ccccc1)OC)N(C)C(=O)[C@@H](NC(=O)[C@H](C(C)C)N(C)C(=O)OCc1ccc(NC(=O)CCCCCN2C(=O)CC(SC[C@H](N)C(=O)O)C2=O)cc1)C(C)C (some centres unmarked) [Cys-15] ({X1-PABC}-[NMeV]V[Dil][Dolaproine]-X2) | 98.86% | 2.31 nM | 82.62% | 6.88 nM | 51.2 nM | 91.13% | 2320 nM | 8.67 nM | 94.86% | 22–177 fold | 11.1 nM | 85.75% | 
2 | CCC(C)C(C(CC(=O)N1CCCC1C(OC)C(C)C(=O)NC(C)C(O)c1ccccc1)OC)N(C)C(=O)C(NC(=O)C(NC)C(C)C)C(C)C (centres unmarked) [MMAE, Monomethyl auristatin E] | 97.54% | 0.07 nM | 79.09% | 0.32 nM | 0.29 nM | 93.14% | 1430 nM | 0.07 nM | 89.37% |  | 0.17 nM |  | 0.01 to 1 nM
